In patent US8471005B2 (Cephalon, Inc., priority 2008, dated 2013):
pIC50: −log10 of the molar value. Like-named read-outs stand apart in the source and are kept apart here.

Columns and labels:
JAK2 = target: T1, JAK2 (Homo sapiens, UniProt O60674); assay: Recombinant Human JAK2 Kinase Assay (TRF); assay type: biochemical; settings: read-out: JAK2 Potency
T1 construct: host or cells: baculovirus expression system
Procedure, shortened: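 Europium-labelled PY100 antibody reported tyrosine phosphorylation of a Neutravidin-captured biotinyl 15-mer peptide by JAK2 (baculovirus-expressed, 15 ng/ml). Conditions: 20 mM HEPES pH 7.2, 0.2 μM ATP, 1 mM MnCl2, 0.1% BSA, DMSO 2.5% final, 20 min at room temperature.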

ALK = target: T2, ALK (Homo sapiens, UniProt Q9UM73); assay: ALK Kinase Assay (ELISA/TRF, PLC-γ substrate); assay type: biochemical; settings: read-out: ALK Potency
T2 construct: host or cells: baculovirus expression system
Procedure, shortened: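 IC50 values derive from percent inhibition plotted against log10 compound concentration and fitted to a variable-slope sigmoidal equation. The underlying reaction used 30 ng/ml ALK acting on immobilized PLC-γ (10 μg/mL in TBS) at 37° C for 15 minutes, read with Eu-N1 PT66 antibody.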

[1] = JAK2 kinase inhibition, 0.2 μM ATP
[2] = ALK kinase inhibition, 1 μM ATP

T1 sequence (O60674 whole entry): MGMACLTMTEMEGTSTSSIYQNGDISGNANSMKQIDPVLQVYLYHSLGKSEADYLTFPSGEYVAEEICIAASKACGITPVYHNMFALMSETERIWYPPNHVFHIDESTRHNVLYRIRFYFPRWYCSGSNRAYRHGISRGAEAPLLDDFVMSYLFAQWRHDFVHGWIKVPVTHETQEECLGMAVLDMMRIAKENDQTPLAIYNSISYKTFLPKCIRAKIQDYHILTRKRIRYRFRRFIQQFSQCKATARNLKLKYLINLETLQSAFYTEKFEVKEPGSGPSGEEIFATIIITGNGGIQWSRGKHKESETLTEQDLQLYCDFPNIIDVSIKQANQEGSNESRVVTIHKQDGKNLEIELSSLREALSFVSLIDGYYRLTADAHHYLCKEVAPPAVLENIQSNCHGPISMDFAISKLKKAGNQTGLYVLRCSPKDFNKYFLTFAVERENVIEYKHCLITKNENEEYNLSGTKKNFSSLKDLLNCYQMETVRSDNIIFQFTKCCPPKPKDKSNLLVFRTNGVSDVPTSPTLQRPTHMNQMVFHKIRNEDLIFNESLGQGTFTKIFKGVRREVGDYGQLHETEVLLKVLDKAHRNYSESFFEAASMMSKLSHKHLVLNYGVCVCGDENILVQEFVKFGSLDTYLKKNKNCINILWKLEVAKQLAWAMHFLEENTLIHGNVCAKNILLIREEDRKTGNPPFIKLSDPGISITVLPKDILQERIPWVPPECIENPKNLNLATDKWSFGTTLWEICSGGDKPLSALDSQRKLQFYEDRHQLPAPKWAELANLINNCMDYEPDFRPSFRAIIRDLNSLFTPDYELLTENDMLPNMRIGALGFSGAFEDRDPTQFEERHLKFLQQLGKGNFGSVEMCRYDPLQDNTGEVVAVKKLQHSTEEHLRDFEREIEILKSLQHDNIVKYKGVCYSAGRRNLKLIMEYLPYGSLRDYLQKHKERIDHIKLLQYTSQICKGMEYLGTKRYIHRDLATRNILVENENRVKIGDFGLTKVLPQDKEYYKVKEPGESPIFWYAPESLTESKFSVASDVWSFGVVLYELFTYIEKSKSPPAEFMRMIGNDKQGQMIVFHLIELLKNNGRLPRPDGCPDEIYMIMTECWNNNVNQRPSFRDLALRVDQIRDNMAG
T2 sequence (Q9UM73 19-1620): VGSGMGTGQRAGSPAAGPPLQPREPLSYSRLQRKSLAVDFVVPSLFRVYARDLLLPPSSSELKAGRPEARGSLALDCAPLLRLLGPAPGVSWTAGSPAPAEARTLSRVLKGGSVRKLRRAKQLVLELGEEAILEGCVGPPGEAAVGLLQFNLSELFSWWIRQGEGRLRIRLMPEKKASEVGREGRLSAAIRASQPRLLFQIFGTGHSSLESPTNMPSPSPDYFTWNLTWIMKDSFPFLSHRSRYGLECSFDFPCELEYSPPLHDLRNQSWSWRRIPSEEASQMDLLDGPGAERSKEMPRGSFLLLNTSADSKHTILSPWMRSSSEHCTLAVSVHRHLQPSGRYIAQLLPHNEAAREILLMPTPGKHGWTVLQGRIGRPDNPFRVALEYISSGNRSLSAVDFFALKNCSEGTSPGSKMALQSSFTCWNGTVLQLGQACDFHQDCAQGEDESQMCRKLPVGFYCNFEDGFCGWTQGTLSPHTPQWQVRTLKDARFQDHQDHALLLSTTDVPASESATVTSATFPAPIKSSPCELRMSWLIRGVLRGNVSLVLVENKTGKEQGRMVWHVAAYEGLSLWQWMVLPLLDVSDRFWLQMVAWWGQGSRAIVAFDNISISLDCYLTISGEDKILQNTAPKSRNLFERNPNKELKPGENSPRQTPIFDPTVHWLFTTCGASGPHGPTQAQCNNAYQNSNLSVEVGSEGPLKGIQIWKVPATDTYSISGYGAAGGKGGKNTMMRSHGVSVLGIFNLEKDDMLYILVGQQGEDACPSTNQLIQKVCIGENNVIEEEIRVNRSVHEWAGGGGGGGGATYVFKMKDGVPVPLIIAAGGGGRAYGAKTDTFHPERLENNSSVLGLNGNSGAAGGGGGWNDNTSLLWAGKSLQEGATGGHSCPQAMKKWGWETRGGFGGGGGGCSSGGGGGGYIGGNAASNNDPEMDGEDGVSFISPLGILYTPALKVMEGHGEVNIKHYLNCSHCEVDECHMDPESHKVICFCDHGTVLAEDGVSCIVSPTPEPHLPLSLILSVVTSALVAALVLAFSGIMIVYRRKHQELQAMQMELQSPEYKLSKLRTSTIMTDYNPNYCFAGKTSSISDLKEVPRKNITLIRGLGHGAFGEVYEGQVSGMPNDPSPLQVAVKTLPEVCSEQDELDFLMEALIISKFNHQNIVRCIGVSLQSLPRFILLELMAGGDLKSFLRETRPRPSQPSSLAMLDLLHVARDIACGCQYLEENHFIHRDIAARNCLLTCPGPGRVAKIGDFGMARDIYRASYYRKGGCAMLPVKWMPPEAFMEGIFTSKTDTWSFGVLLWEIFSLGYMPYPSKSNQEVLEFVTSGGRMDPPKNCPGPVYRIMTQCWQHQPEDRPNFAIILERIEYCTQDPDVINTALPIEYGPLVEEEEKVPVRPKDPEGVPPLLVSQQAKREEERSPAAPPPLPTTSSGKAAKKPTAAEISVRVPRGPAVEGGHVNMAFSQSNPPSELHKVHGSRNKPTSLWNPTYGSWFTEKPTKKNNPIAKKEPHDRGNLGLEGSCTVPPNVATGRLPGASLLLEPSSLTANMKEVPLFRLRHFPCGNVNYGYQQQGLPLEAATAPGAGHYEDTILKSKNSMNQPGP

SMILES | pIC50 (JAK2; [1]) | pIC50 (ALK; [2]) | pIC50 (JAK2; JAK2 Kinase Inhibition) | pIC50 (ALK; ALK Kinase Inhibition)
COc1cc(Cn2ccnc2C)ccc1Nc1ncc2ccc(-c3ccccc3N(C)S(C)(=O)=O)n2n1 [Example 505, N-(2-{2-[2-Methoxy-4-(2-methyl-imidazol-1-ylmethyl)-phenylamino]-pyrrolo[2,1-f][1,2,4]triazin-7-yl}-phenyl)-N-methyl-methanesulfonamide] | 5.00 to 6.00 | > 7.00 | – | –
CN1CCN(c2cccc(Nc3ncc4ccc(-c5cnn(CCCO)c5)n4n3)c2)CC1 [Example 976, 3-(4-{2-[3-(4-Methyl-piperazin-1-yl)-phenylamino]-pyrrolo[2,1-f][1,2,4]triazin-7-yl}-pyrazol-1-yl)-propan-1-ol] | > 7.00 | 6.00 to 7.00 | – | –
Clc1cccc(-c2ccc3cnc(Nc4ccc(N5CCOCC5)nc4)nn23)c1 [Example 79, [7-(3-Chloro-phenyl)-pyrrolo[2,1-f][1,2,4]triazin-2-yl]-(6-morpholin-4-yl-pyridin-3-yl)-amine] | – | – | > 7.00 | < 5.00
Cc1cc(-c2ccc(S(C)(=O)=O)cc2)n2nc(Nc3ccc(N4CCOCC4)cc3)ncc12 [Example 107, [7-(4-Methanesulfonyl-phenyl)-5-methyl-pyrrolo[2,1-f][1,2,4]triazin-2-yl]-(4-morpholin-4-yl-phenyl)-amine] | – | – | > 7.00 | 6.00 to 7.00
COc1ccccc1-c1ccc2cnc(NC(=O)Nc3ccc(N4CCN(C)CC4)cc3)nn12 [Example 449, 1-[7-(2-Methoxy-phenyl)-pyrrolo[2,1-f][1,2,4]triazin-2-yl]-3-[4-(4-methyl-piperazin-1-yl)-phenyl]-urea] | – | – | > 7.00 | 6.00 to 7.00
c1cncc(-c2ccc3cnc(-n4cnc5cnccc54)nn23)c1 [Example 325, 1-(7-Pyridin-3-yl-pyrrolo[2,1-f][1,2,4]triazin-2-yl)-1H-imidazo[4,5-c]pyridine] | – | – | 5.00 to 6.00 | 5.00 to 6.00
COc1cc(C2CCNCC2)ccc1Nc1ncc2ccc(-c3ccccc3OC)n2n1 [Example 820, [7-(2-Methoxy-phenyl)-pyrrolo[2,1-f][1,2,4]triazin-2-yl]-(2-methoxy-4-piperidin-4-yl-phenyl)-amine] | 6.00 to 7.00 | > 7.00 | – | –
COc1ccc(Cl)cc1-c1ccc2cnc(-n3cnc4cnccc43)nn12 [Example 323, 1-[7-(5-Chloro-2-methoxy-phenyl)-pyrrolo[2,1-f][1,2,4]triazin-2-yl]-1H-imidazo[4,5-c]pyridine] | – | – | 6.00 to 7.00 | 5.00 to 6.00
O=S(=O)(c1ccc(-c2ccc3cnc(Nc4ccc(N5CCOCC5)cc4)nn23)cc1)N1CCCC1 [Example 63, (4-Morpholin-4-yl-phenyl)-{7-[4-(pyrrolidine-1-sulfonyl)-phenyl]-pyrrolo[2,1-f][1,2,4]triazin-2-yl}-amine] | – | – | > 7.00 | < 5.00
COc1cc(Nc2ncc3ccc(-c4ccccc4OC)n3n2)cc(OC)c1 [Example 158, (3,5-Dimethoxy-phenyl)-[7-(2-methoxy-phenyl)-pyrrolo[2,1-f][1,2,4]triazin-2-yl]-amine] | – | – | > 7.00 | 6.00 to 7.00

The next lines start with the values.

pIC50 (JAK2; [1]) | pIC50 (ALK; [2]) | pIC50 (JAK2; JAK2 Kinase Inhibition) | pIC50 (ALK; ALK Kinase Inhibition) | SMILES
– | – | > 7.00 | > 7.00 | COc1cc(N2CCC(N3CCOCC3)CC2)ccc1Nc1ncc2ccc(-c3ccccc3OC(F)(F)F)n2n1 [Example 1455, [2-Methoxy-4-(4-morpholin-4-yl-piperidin-1-yl)-phenyl]-[7-(2-trifluoromethoxy-phenyl)-pyrrolo[2,1-f][1,2,4]triazin-2-yl]-amine]
– | – | > 7.00 | > 7.00 | COc1cc(N2CCC(N3CCOCC3)CC2)ccc1Nc1ncc2ccc(-c3ccccc3N(CCF)S(C)(=O)=O)n2n1 [Example 1463, N-(2-Fluoro-ethyl)-N-(2-{2-[2-methoxy-4-(4-morpholin-4-yl-piperidin-1-yl)-phenylamino]-pyrrolo[2,1-f][1,2,4]triazin-7-yl}-phenyl)-methanesulfonamide]
– | – | 5.00 to 6.00 | > 7.00 | COc1c(Nc2ncc3ccc(-c4ccccc4N(C)S(C)(=O)=O)n3n2)ccc(N2CCN(C[C@H](C)O)CC2)c1F [Example 1478, N-[2-(2-{3-Fluoro-4-[4-((S)-2-hydroxy-propyl)-piperazin-1-yl]-2-methoxy-phenylamino}-pyrrolo[2,1-f][1,2,4]triazin-7-yl)-phenyl]-N-methyl-methanesulfonamide]
> 7.00 | 5.00 to 6.00 | – | – | c1c[nH]c(-c2ccc3cnc(Nc4ccc(N5CCOCC5)cc4)nn23)c1 [Example 1291, (4-Morpholin-4-yl-phenyl)-[7-(1H-pyrrol-2-yl)-pyrrolo[2,1-f][1,2,4]triazin-2-yl]-amine]
– | – | > 7.00 | 6.00 to 7.00 | CC(=O)Nc1cc(Nc2ncc3ccc(-c4cccc(S(=O)(=O)NC(C)(C)C)c4)n3n2)ccc1C [Example 1398, N-{5-[7-(3-tert-Butylsulfamoyl-phenyl)-pyrrolo[2,1-f][1,2,4]triazin-2-ylamino]-2-methyl-phenyl}-acetamide]
> 7.00 | 6.00 to 7.00 | – | – | OCC1CCN(c2ccc(Nc3ncc4ccc(-c5cccc(Cl)c5)n4n3)cc2)CC1 [Example 1133, (1-{4-[7-(3-Chloro-phenyl)-pyrrolo[2,1-f][1,2,4]triazin-2-ylamino]-phenyl}-piperidin-4-yl)-methanol]
> 7.00 | 6.00 to 7.00 | – | – | COc1ccc(-c2ccc3cnc(Nc4ccc(C5CCN(C)CC5)cc4)nn23)cn1 [Example 1180, [7-(6-Methoxy-pyridin-3-yl)-pyrrolo[2,1-f][1,2,4]triazin-2-yl]-[4-(1-methyl-piperidin-4-yl)-phenyl]-amine]
– | – | 6.00 to 7.00 | > 7.00 | COc1cc(N2CCC(N3CCOCC3)CC2)ccc1Nc1ncc2ccc(-c3ccccc3N(C)S(C)(=O)=O)n2n1 [Example 1453, N-(2-{2-[2-Methoxy-4-(4-morpholin-4-yl-piperidin-1-yl)-phenylamino]-pyrrolo[2,1-f][1,2,4]triazin-7-yl}-phenyl)-N-methyl-methanesulfonamide]
> 7.00 | 6.00 to 7.00 | – | – | COc1ccccc1-c1ccc2cnc(Nc3ccn(CC(=O)N4CCN(C)CC4)n3)nn12 [Example 1114, 2-{3-[7-(2-Methoxy-phenyl)-pyrrolo[2,1-f][1,2,4]triazin-2-ylamino]-pyrazol-1-yl}-1-(4-methyl-piperazin-1-yl)-ethanone]
> 7.00 | 6.00 to 7.00 | – | – | CC(C)(C)NS(=O)(=O)c1cccc(-c2ccc3cnc(Nc4ccc5c(cnn5CCN5CCOCC5)c4)nn23)c1 [Example 1323, N-tert-Butyl-3-{2-[1-(2-morpholin-4-yl-ethyl)-1H-indazol-5-ylamino]-pyrrolo[2,1-f][1,2,4]triazin-7-yl}-benzenesulfonamide]
> 7.00 | 6.00 to 7.00 | – | – | C#CCNC(=O)c1cccc(-c2ccc3cnc(Nc4ccc(N5CCN(C)CC5)cc4)nn23)c1 [Example 1147, 3-{2-[4-(4-Methyl-piperazin-1-yl)-phenylamino]-pyrrolo[2,1-f][1,2,4]triazin-7-yl}-N-prop-2-ynyl-benzamide]
– | – | 5.00 to 6.00 | > 7.00 | COc1cc(C2CCN(CC(N)=O)CC2)ccc1Nc1ncc2c(Cl)cc(-c3ccccc3N(C)S(C)(=O)=O)n2n1 [Example 1554, 2-[4-(4-{5-Chloro-7-[2-(methanesulfonyl-methyl-amino)-phenyl]-pyrrolo[2,1-f][1,2,4]triazin-2-ylamino}-3-methoxy-phenyl)-piperidin-1-yl]-acetamide]
